US20250288561A1, “NEZULCITINIB FOR DELIVERY BY NEBULIZED ORAL INHALATION” (THERAVANCE BIOPHARMA R&D IP, LLC, priority 2022, published 2025)
Read-outs that look alike come from different tables or passages of the source.

What was measured:
[1] = Phase 1 open-label study: plasma PK of single inhaled nezulcitinib doses under supplemental oxygenation scenarios; type: in vivo, human; details: for AUC % extrap / CL/F / DN AUC0-inf / DN AUC0-t / DN Cmax / Kel / Tmax / AUC(0-inf) / Cmax / AUC(0-t) / Vd/F / half-life: plasma; for AUC % extrap / CL/F / DN AUC0-inf / DN AUC0-t / DN Cmax / Kel / AUC(0-inf) / Cmax / AUC(0-t) / Vd/F / half-life: arithmetic mean; for Tmax: median; for Vd/F: read-out: Vz/F; for half-life: read-out: t½ (converted)
From the text: Part A: assessed the plasma PK of nezulcitinib following single inhaled doses administered in the setting of various supplemental oxygenation scenarios in healthy participants.
This was a Phase 1, open-label, fixed-sequence, 4-period study to evaluate the PK and safety of single inhaled doses of nezulcitinib, administered under different supplemental oxygenation scenarios.
Participants received a single inhaled dose of nezulcitinib using a nebulizer device on Day 1 of each administration period, under different supplementary oxygenation conditions and under fasting conditions.
Administrations were as follows: • Administration A (test): 3 mg nezulcitinib delivered by nasal inhalation via the Aerogen Solo integrated with a high-flow nasal cannula circuit delivering supplemental oxygen at a flow rate of 30 L/min. • Administration B (reference): 3 mg nezulcitinib delivered by oral inhalation via the Aerogen Solo coupled with the Aerogen Ultra handheld device, in the presence of supplemental oxygen delivery via low-flow nasal cannula at 6 L/min. • Administration C (test): 3 mg nezulcitinib delivered by oral inhalation via the Aerogen Solo coupled with the Aerogen Ultra handheld device, in the presence of supplemental oxygen delivery via high-flow nasal cannula at a flow rate of 30 L/min. • Administration D1 (test): 3 mg nezulcitinib delivered by oral inhalation via the Aerogen Solo coupled with the Aerogen Ultra handheld device, in the presence of supplemental oxygen delivery via high-flow nasal cannula at a flow rate of 50 L/min. • Administration D2 (test): 9 mg nezulcitinib delivered by oral inhalation via the Aerogen Solo coupled with the Aerogen Ultra handheld device, in the presence of supplemental oxygen delivery via high-flow nasal cannula at a flow rate of 50 L/min.
Serial blood samples were collected prior to and until 48 hours following dosing on Day 1 of each period to determine the concentration of nezulcitinib in plasma.
The following non-compartmental PK parameters were calculated for nezulcitinib, as appropriate:
• AUC0-t: The area under the concentration time curve, from time 0 to the last observed non-zero concentration, as calculated by the linear trapezoidal method. • AUC0-24: The area under the concentration time curve, from time 0 to the 24 hour time point, as calculated by the linear trapezoidal method. • AUC0-inf: The area under the concentration time curve from time 0 extrapolated to infinity. AUC0-inf was calculated as the sum of AUC0-t plus the ratio of the last measurable plasma concentration to the elimination rate constant. • AUC % extrap: Percent of AUC0-inf extrapolated, represented as (1−AUC0-t/AUC0-inf)*100. • CL/F: Apparent total plasma clearance after oral (extravascular) administration, calculated as Dose/AUC0-inf. • Cmax: Maximum observed concentration. • Tmax: Time to reach Cmax. If the maximum value occurs at more than one time point, Tmax is defined as the first time point with this value. • Kel: Apparent first order terminal elimination rate constant calculated from a semi-log plot of the plasma concentration versus time curve. The parameter was calculated by linear least-squares regression analysis using the maximum number of points in the terminal log-linear phase (e.g., three or more non-zero plasma concentrations). • t1/2: Apparent first-order terminal elimination half-life was calculated as 0.693/Kel. • Vz/F: Apparent volume of distribution during the terminal elimination phase after oral (extravascular) administration, calculated as Dose/(AUC0-inf*Kel).

[2] = Earlier phase 1 clinical trial: safety, tolerability, hematological and lipid changes; type: in vivo, human
Method: Compound 1 was evaluated in a phase 1 clinical trial and dosed in humans through nebulized inhalation at 1 mg, 3 mg, and 10 mg for up to 7 days. […] The pharmacokinetics of inhaled compound 1 are consistent with low plasma exposures after inhaled administration. […] Additionally, absolute NK cell counts were evaluated after multiple-dosing to assess the potential for systemic pharmacologic effects associated with JAK inhibition by compound 1. […] The lack of reduction in NK cell counts is also consistent with the lack of systemic JAK inhibition. […] Other systemically mediated hematological changes associated with JAK inhibition, including neutrophil and hemoglobin reductions as well as lipid changes, were not observed with inhaled administration of compound 1.
The selected dose of 3 mg in the present study was consistent with the dose in a recently completed Phase 2 study. In addition, the 3 mg dose ensured adequate characterization of the nezulcitinib PK profile. Dose levels up to 9 mg of nezulcitinib were also evaluated (Administration D2). This dose level was within the range of doses tested previously (up to 10 mg of nezulcitinib) in healthy participants and those with COVID-19 in previous clinical studies.

[3] = Administration A: single 3 mg, nasal inhalation via high-flow nasal cannula circuit, oxygen 30 L/min
[4] = Administration B: single 3 mg, oral inhalation, low-flow nasal cannula oxygen 6 L/min
[5] = Administration C: single 3 mg, oral inhalation, high-flow nasal cannula oxygen 30 L/min
[6] = Administration D1: single 3 mg, oral inhalation, high-flow nasal cannula oxygen 50 L/min
[7] = Administration D2: single 9 mg, oral inhalation, high-flow nasal cannula oxygen 50 L/min
[8] = human, inhaled or intranasal, 3 mg, Administration A: single 3 mg, nasal inhalation via high-flow nasal cannula circuit, oxygen 30 L/min
[9] = human, inhaled, 3 mg, Administration B: single 3 mg, oral inhalation, low-flow nasal cannula oxygen 6 L/min
[10] = human, inhaled, 3 mg, Administration C: single 3 mg, oral inhalation, high-flow nasal cannula oxygen 30 L/min
[11] = human, inhaled, 3 mg, Administration D1: single 3 mg, oral inhalation, high-flow nasal cannula oxygen 50 L/min
[12] = human, inhaled, 9 mg, Administration D2: single 9 mg, oral inhalation, high-flow nasal cannula oxygen 50 L/min

## CCc1cc(O)ccc1-c1ccc2c(-c3nc4c([nH]3)CN(C(C)C)[C@H](C(=O)N3CC(N(C)C)C3)C4)n[nH]c2c1 [Compound 1, (S)-(3-(dimethylamino)azetidin-1-yl)(2-(6-(2-ethyl-4-hydroxyphenyl)-1H-indazol-3-yl)-5-isopropyl-4,5,6,7-tetrahydro-3H-imidazo[4,5-c]pyridin-6-yl)methanone]
[1]; 3 mg oral inhalation
  plasma concentrations, effect of increasing flow rate from 30 L/min (Administration C) to 50 L/min (Administration D1): did not impact the plasma concentrations
[1]; 3 mg oral inhalation with high-flow 30 L/min vs 3 mg nasal through the high-flow circuit 30 L/min, FIG. 3
  plasma concentrations, Administration C compared to Administration A: sustained increased plasma concentrations
[1]; [3]
  AUC % extrap: 4.451%
  CL/F: 526.8 L/h
  DN AUC0-inf: 2.586 ± [ng*hr/mL]/mg
  DN AUC0-t: 2.480 ± [ng*hr/mL]/mg
  DN Cmax: 0.5610 ± [ng/mL]/mg
  Kel: 0.07122 ± 1 h⁻¹
  Tmax: 1.000 h
[1]; [4]
  AUC % extrap: 3.152%
  CL/F: 287.0 L/h
  DN AUC0-inf: 18.00 ± [ng*hr/mL]/mg
  DN AUC0-t: 17.46 ± [ng*hr/mL]/mg
  DN Cmax: 4.658 ± [ng/mL]/mg
  Kel: 0.07667 ± 1 h⁻¹
[1]; [5]
  AUC % extrap: 3.898%
  CL/F: 128.9 L/h
  DN AUC0-inf: 18.24 ± [ng*hr/mL]/mg
  DN AUC0-t: 17.69 ± [ng*hr/mL]/mg
  DN Cmax: 4.725 ± [ng/mL]/mg
  Kel: 0.04804 ± 1 h⁻¹
[1]; [6]
  AUC % extrap: 2.813%
  CL/F: 146.9 L/h
  DN AUC0-inf: 17.44 ± [ng*hr/mL]/mg
  DN AUC0-t: 16.94 ± [ng*hr/mL]/mg
  DN Cmax: 4.649 ± [ng/mL]/mg
  Kel: 0.06152 ± 1 h⁻¹
  Tmax: 1.000 h
[1]; [7]
  AUC % extrap: 2.727%
  CL/F: 312.3 L/h
  DN AUC0-inf: 16.89 ± [ng*hr/mL]/mg
  DN AUC0-t: 16.53 ± [ng*hr/mL]/mg
  DN Cmax: 4.858 ± [ng/mL]/mg
  Kel: 0.05057 ± 1 h⁻¹
[1]; human, inhaled, Administration B: single 3 mg, oral inhalation, low-flow nasal cannula oxygen 6 L/min, read-out: Tmax
  Tmax: 1 h
[1]; human, inhaled, Administration D2: single 9 mg, oral inhalation, high-flow nasal cannula oxygen 50 L/min, read-out: Tmax
  Tmax: 1 h
[1]; [8]
  AUC(0-inf): 7.76 ng·h/mL
  Cmax: 1.68 ng/mL
  Vd/F: 7400 L
  half-life: 10.2 h
[1]; human, inhaled or intranasal, 3 mg, Administration A: single 3 mg, nasal inhalation via high-flow nasal cannula circuit, oxygen 30 L/min, read-out: AUC0-24
  AUC(0-t): 7.06 ng·h/mL
[1]; human, inhaled or intranasal, 3 mg, Administration A: single 3 mg, nasal inhalation via high-flow nasal cannula circuit, oxygen 30 L/min, read-out: AUC0-t
  AUC(0-t): 7.44 ng·h/mL
[1]; [9]
  AUC(0-inf): 54 ng·h/mL
  Cmax: 14 ng/mL
  Vd/F: 1770 L
  half-life: 12.9 h
[1]; human, inhaled, 3 mg, Administration B: single 3 mg, oral inhalation, low-flow nasal cannula oxygen 6 L/min, read-out: AUC0-24
  AUC(0-t): 49.1 ng·h/mL
[1]; human, inhaled, 3 mg, Administration B: single 3 mg, oral inhalation, low-flow nasal cannula oxygen 6 L/min, read-out: AUC0-t
  AUC(0-t): 52.4 ng·h/mL
[1]; [10]
  AUC(0-inf): 54.7 ng·h/mL
  Cmax: 14.2 ng/mL
  Vd/F: 3920 L
  half-life: 15.1 h
[1]; human, inhaled, 3 mg, Administration C: single 3 mg, oral inhalation, high-flow nasal cannula oxygen 30 L/min, read-out: AUC0-24
  AUC(0-t): 49.9 ng·h/mL
[1]; human, inhaled, 3 mg, Administration C: single 3 mg, oral inhalation, high-flow nasal cannula oxygen 30 L/min, read-out: AUC0-t
  AUC(0-t): 53.1 ng·h/mL
[1]; [11]
  AUC(0-inf): 52.3 ng·h/mL
  Cmax: 13.9 ng/mL
  Vd/F: 1780 L
  half-life: 12.3 h
[1]; human, inhaled, 3 mg, Administration D1: single 3 mg, oral inhalation, high-flow nasal cannula oxygen 50 L/min, read-out: AUC0-24
  AUC(0-t): 47.9 ng·h/mL
[1]; human, inhaled, 3 mg, Administration D1: single 3 mg, oral inhalation, high-flow nasal cannula oxygen 50 L/min, read-out: AUC0-t
  AUC(0-t): 50.8 ng·h/mL
[1]; [12]
  AUC(0-inf): 152 ng·h/mL
  Cmax: 43.7 ng/mL
  Vd/F: 7310 L
  half-life: 14.1 h
[1]; human, inhaled, 9 mg, Administration D2: single 9 mg, oral inhalation, high-flow nasal cannula oxygen 50 L/min, read-out: AUC0-24
  AUC(0-t): 141 ng·h/mL
[1]; human, inhaled, 9 mg, Administration D2: single 9 mg, oral inhalation, high-flow nasal cannula oxygen 50 L/min, read-out: AUC0-t
  AUC(0-t): 149 ng·h/mL
[1]; oral inhalation, high-flow 50 L/min, FIG. 6
  plasma concentration, 9 mg (Administration D2) vs 3 mg (Administration D1): approximately a dose-proportional increase in plasma concentration
[2]; inhaled administration
  neutrophil and hemoglobin reductions, lipid changes: not observed
[2]; single and multiple doses of 1, 3, and 10 mg, healthy adult participants
  safety and tolerability: safe and well tolerated
